pIC50: −log10 of the molar value.
How the values were obtained:
[1] = target: T1, Gastrin/cholecystokinin type B receptor (Rattus norvegicus, UniProt P30553); experiment: Tested for displacement of [125I]-CCK-8 from Gastrin/Cholecystokinin type B receptor in rat brain.; format: tissue-based
T1 sequence (P30553 whole entry): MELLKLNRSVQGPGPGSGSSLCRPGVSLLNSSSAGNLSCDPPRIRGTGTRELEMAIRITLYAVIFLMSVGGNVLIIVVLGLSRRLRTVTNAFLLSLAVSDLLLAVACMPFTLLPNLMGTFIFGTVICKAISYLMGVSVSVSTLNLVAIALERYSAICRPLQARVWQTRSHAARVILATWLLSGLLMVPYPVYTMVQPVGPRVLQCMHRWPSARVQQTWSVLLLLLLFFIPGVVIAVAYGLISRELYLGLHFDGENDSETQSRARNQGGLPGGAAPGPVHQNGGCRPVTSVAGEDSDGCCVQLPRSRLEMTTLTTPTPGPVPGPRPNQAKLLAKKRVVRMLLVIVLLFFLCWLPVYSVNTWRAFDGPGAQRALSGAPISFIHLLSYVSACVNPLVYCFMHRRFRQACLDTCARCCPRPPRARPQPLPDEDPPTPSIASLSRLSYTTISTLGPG

[2] = target: T2, Cholecystokinin receptor type A (Rattus norvegicus, UniProt P30551); experiment: Tested for displacement of [3H]-L-364,718 from Cholecystokinin type A receptor in rat pancreas.
T2 sequence (P30551 whole entry): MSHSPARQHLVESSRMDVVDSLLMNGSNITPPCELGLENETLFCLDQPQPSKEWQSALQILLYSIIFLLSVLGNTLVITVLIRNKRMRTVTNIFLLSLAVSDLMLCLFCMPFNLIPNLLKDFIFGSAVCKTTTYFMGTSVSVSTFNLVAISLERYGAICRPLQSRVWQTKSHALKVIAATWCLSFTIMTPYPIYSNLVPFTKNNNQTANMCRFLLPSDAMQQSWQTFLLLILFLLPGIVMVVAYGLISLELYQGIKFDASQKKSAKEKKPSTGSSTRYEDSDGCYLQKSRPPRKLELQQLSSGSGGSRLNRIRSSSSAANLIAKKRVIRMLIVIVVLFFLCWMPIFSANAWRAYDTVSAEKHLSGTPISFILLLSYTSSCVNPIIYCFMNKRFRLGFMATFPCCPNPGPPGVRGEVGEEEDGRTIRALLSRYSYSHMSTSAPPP

Row | Compound | pIC50 [1] | pIC50 [2]
1 | CCCC[C@H](NC(=O)Cc1c[nH]c2ccccc12)C(=O)N(CC(=O)N1CCC[C@H]1C(=O)O)CC1CCCCC1 | 7.52 | < 5.00
2 | CC(C)(C)OC(=O)N1c2ccccc2C[C@@H]1C(=O)N1[C@@H](C(=O)N2Cc3ccccc3C[C@@H]2C(=O)O)CC[C@H]1c1ccccc1 | 7.41 | < 5.00
3 | CC(C)(C)OC(=O)N1c2ccccc2C[C@@H]1C(=O)N1[C@@H](C(=O)N2Cc3ccccc3C[C@@H]2C(N)=O)CC[C@H]1c1ccccc1 | 6.77 | < 5.00
4 | CCCC[C@H](NC(=O)Cc1c[nH]c2ccccc12)C(=O)N(CCc1ccccc1)CC(=O)N1CCC[C@H]1C(=O)O | 7.47 | 
5 | O=C(Cc1c[nH]c2ccccc12)N[C@@H](Cc1ccccc1)C(=O)N(CCC1CCCCC1)CC(=O)N1CCC[C@H]1C(=O)O | 9.03 | < 5.00
6 | CCCC[C@H](NC(=O)Cc1c[nH]c2ccccc12)C(=O)N(CCC1CCCCC1)CC(=O)N1CCCC1 | 6.84 | < 5.00
7 | CCCC[C@H](NC(=O)Cc1c[nH]c2ccccc12)C(=O)N(CCC1CCCCC1)CC(=O)O | 6.43 | < 5.00
8 | CC(C)(C)OC(=O)N1c2ccccc2C[C@@H]1C(=O)N1[C@@H](C(=O)N2Cc3ccccc3C[C@@H]2C(=O)N2CCCC2C(=O)O)CC[C@H]1c1ccccc1 (stereo partly specified) | 9.60 | < 5.00
9 | CCC[C@@H]1CCN(C(=O)[C@@H]2Cc3c[nH]c4cccc(c34)CC(=O)N2)[C@@H]1C(=O)N[C@@H](CC(=O)O)C(=O)N[C@@H](Cc1ccccc1)C(N)=O | 9.15 | 
10 | CCCC[C@H](NC(=O)Cc1c[nH]c2ccccc12)C(=O)N(CCc1ccccc1)CC(=O)N1CCCC1C(=O)O (stereo partly specified) | 6.52 | 
11 | CC(C)(C)OC(=O)N1c2ccccc2C[C@@H]1C(=O)N1[C@@H](C(=O)N2Cc3ccccc3C[C@@H]2C(=O)N2CCC[C@@H]2C(=O)O)CC[C@H]1c1ccccc1 | 7.44 | < 5.00
12 | CCCC[C@H](NC(=O)Cc1c[nH]c2ccccc12)C(=O)N(CCc1ccccc1)CC(=O)O | 6.78 | 
13 | CC(C)C[C@@H](C(=O)N[C@@H](CC(=O)O)C(=O)N[C@@H](Cc1ccccc1)C(N)=O)N1CC(=O)N[C@H](Cc2c[nH]c3ccccc23)C1=O | 7.42 | 
14 | CC(C)(C)OC(=O)N1c2ccccc2C[C@@H]1C(=O)N1[C@@H](C(=O)N2Cc3ccccc3C[C@@H]2C(=O)NCC(=O)O)CC[C@H]1c1ccccc1 | 7.57 | < 5.00
15 | CC(C)(C)OC(=O)N1c2ccccc2C[C@@H]1C(=O)N1[C@@H](C(=O)N2CCc3ccccc3C2)CC[C@H]1c1ccccc1 | 7.28 | < 5.00
16 | O=C(Cc1c[nH]c2ccccc12)N[C@@H](CCc1ccccc1)C(=O)N(CCC1CCCCC1)CC(=O)N1CCC[C@H]1C(=O)O | 7.77 | < 5.00
17 | CC(C)(C)OC(=O)N1c2ccccc2C[C@@H]1C(=O)N1[C@@H](C(=O)N2Cc3ccccc3C[C@@H]2CC(=O)O)CC[C@H]1c1ccccc1 | 7.46 | < 5.00
18 | CCCC[C@H](NC(=O)Cc1c[nH]c2ccccc12)C(=O)N(CCC1CCCCC1)CC(=O)N1CCC[C@H]1C(=O)O | 8.64 | < 5.00
